Experimental data published in PubChem BioAssay (NCI).
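Five concentrations, 48 hours, 96-well plates. TGI is the concentration that stops growth completely.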 *1 amine or outer side, *2 acyl side, *3 side chain or, on linkers, in order; H or OH if unused. Where a SMILES comes first, the peptide text is derived from it. Bridges are numbered along the chain shown (N, C = ends). Roman numbers before positions name the chains, in order. [ ]: non-standard residue; d: D form. Actinocin(9to1) = Cc1c2oc3c(C)ccc(C(=O)[*:1])c3nc-2c(C(=O)[*:2])c(N)c1=O; Hyp = O=C(O)[CH]1C[CH](O)CN1; NMeV = CN[CH](C(=O)O)C(C)C; Sar = CNCC(=O)O

Key:
Experiment in all cases: NCI anticancer screen, dose series, 48 h
CAKI-1 renal = system: CAKI-1 renal
MOLT-4 leukemia = system: MOLT-4 leukemia
SK-MEL-28 melanoma = system: SK-MEL-28 melanoma
OVCAR-8 ovarian = system: OVCAR-8 ovarian
NCI-H460 lung = system: NCI-H460 lung
A498 renal = system: A498 renal
HT29 colon = system: HT29 colon
PC-3 prostate = system: PC-3 prostate
TK-10 renal = system: TK-10 renal
SK-OV-3 ovarian = system: SK-OV-3 ovarian
HCT-116 colon = system: HCT-116 colon
HOP-62 NSCLC = system: HOP-62 NSCLC
U251 CNS = system: U251 CNS

| SMILES | TGI (CAKI-1 renal) [µM] | TGI (MOLT-4 leukemia) [µM] | TGI (SK-MEL-28 melanoma) [µM] | TGI (OVCAR-8 ovarian) [µM] | TGI (NCI-H460 lung) [µM] | TGI (A498 renal) [µM] | TGI (HT29 colon) [µM] | TGI (PC-3 prostate) [µM] | TGI (TK-10 renal) [µM] | TGI (SK-OV-3 ovarian) [µM] | TGI (HCT-116 colon) [µM] | TGI (HOP-62 NSCLC) [µM] | TGI (U251 CNS) [µM] |
| --- | --- | --- | --- | --- | --- | --- | --- | --- | --- | --- | --- | --- | --- |
| COC1=C(Cl)C(=O)c2c(O)ccc(O)c2C1=O | 1.6 | 0.489 | 6.73 | 4.78 | 24.4 | 2.63 | 11.8 | 9.17 | 2.4 | 29.4 | 1.34 | 2.31 | 11.9 |
| O=C(C/C(=N/O)C(F)(F)F)c1cccs1 | > 100 | > 100 | > 100 | > 100 | > 100 | > 100 | > 100 | > 100 | > 100 | > 100 | > 100 | > 100 | > 100 |
| CCN(CC)c1ccc(/C=C2\CCc3ccc([N+](=O)[O-])cc3C2=O)cc1 | > 100 | > 100 | > 100 | > 100 | > 48.9 | 69.9 | 2.21 | > 100 | > 100 | > 100 | > 100 | – | > 100 |
| O=c1c2cnccc2cc2c3ccccc3ccn12 | > 100 | 91.8 | > 100 | > 100 | > 100 | > 100 | > 100 | > 100 | > 100 | > 100 | > 100 | > 100 | > 100 |
| CO/N=C(\C([O-])=N\[n+]1cnn(CC(=O)OC(C)(C)C)c1)c1csc(NC(c2ccccc2)(c2ccccc2)c2ccccc2)n1 | > 10 | > 10 | > 10 | > 10 | > 10 | > 10 | > 10 | > 10 | > 10 | > 10 | > 10 | > 10 | > 10 |
| Cc1cc(Nc2ccc(NS(C)(=O)=O)cc2)c2c(ccc3nccc32)[nH]1 | 96.6 | 11.8 | 33.4 | > 100 | 46.5 | 43 | 89.3 | 39.7 | > 100 | – | 37.9 | 44.5 | 29 |
| COC(=O)c1ccccc1/C=C1\Cc2ccc3c(c2C1=O)CCCC3 | > 100 | > 100 | > 100 | > 100 | > 100 | > 100 | > 100 | > 100 | > 100 | > 100 | > 100 | > 100 | > 100 |
| CCN(CC)CC1CN=C(N)O1 (centres undefined) | > 100 | > 100 | > 100 | > 100 | > 100 | > 100 | – | > 100 | – | – | > 100 | > 100 | > 100 |
| O=C(OC1CN2CCC1CC2)N(c1ccccc1)c1ccccc1 (centres undefined) | > 100 | > 100 | > 100 | > 100 | – | 78.5 | > 100 | > 100 | > 100 | > 100 | > 100 | > 100 | > 100 |
| CC(=O)O[C@H]1C[C@@H](OC(C)=O)[C@@](C)(O)[C@@H]2[C@@H](OC(C)=O)[C@@]3(O)[C@H](/C=C(/CO)[C@H]4O[C@H]4[C@@H](OC(C)=O)[C@@]12C)OC(=O)[C@@H]3C | > 25 | > 25 | > 25 | > 25 | > 25 | > 25 | > 25 | > 25 | > 25 | > 25 | > 25 | > 25 | 21.4 |
| COc1cc(Cc2cnc(N)nc2N)cc(OC)c1OCCCNc1ccc([N+](=O)[O-])cc1 | > 100 | 8.66 | 27.1 | 30.1 | 26 | 39.3 | 14.8 | 22.3 | 32.7 | 66.6 | 30.4 | 27.4 | 29.2 |
| Cc1cc(S(=O)(=O)Nc2nncn2-c2ccc(Cl)cc2)c(S)cc1Cl | > 10 | > 10 | > 10 | > 10 | > 10 | > 10 | > 10 | > 10 | > 10 | > 10 | > 10 | > 10 | > 10 |
| C=CCOC(=O)N1c2ccc(O)cc2[C@@]23O[C@@]24[C@@H]1C#C/C=C\C#C[C@]3(O)C(OC)(OC)C[C@@H]4C | > 100 | > 100 | > 100 | 85.5 | 83.3 | 67.6 | 49.8 | 77.6 | > 100 | > 100 | > 100 | 85.9 | > 100 |
| O=[N+]([O-])c1cc(F)ccc1S(=O)(=O)c1ccccc1 | > 10 | > 10 | > 10 | > 10 | > 10 | > 10 | > 10 | > 10 | > 10 | > 10 | > 10 | > 10 | > 10 |
| CC(C)(C)NC(=O)/C(=C\Sc1ccccc1)c1ccccc1 | > 100 | > 100 | > 100 | > 100 | > 100 | > 100 | > 100 | > 100 | > 100 | > 100 | > 100 | > 100 | > 100 |
| O=C(CN1CCCCC1)Nc1ccc2c(c1)C1Oc3ccccc3CC1CO2 (centres undefined) | > 100 | > 100 | – | > 100 | – | 62.8 | 29.1 | 35 | 50.9 | 81.9 | 35.2 | 34.1 | 33.3 |
| CCN(CC)CCn1c(=O)c2c(C)c3oc4ccccc4oc3c(C)c2c1=O | > 100 | > 100 | – | > 100 | > 100 | > 100 | > 100 | > 100 | > 100 | > 100 | > 100 | > 100 | > 100 |

| SMILES | TGI (CAKI-1 renal) [µM] | TGI (MOLT-4 leukemia) [µM] | TGI (SK-MEL-28 melanoma) [µM] | TGI (OVCAR-8 ovarian) [µM] | TGI (NCI-H460 lung) [µM] | TGI (A498 renal) [µM] | TGI (HT29 colon) [µM] | TGI (PC-3 prostate) [µM] | TGI (TK-10 renal) [µM] | TGI (SK-OV-3 ovarian) [µM] | TGI (HCT-116 colon) [µM] | TGI (HOP-62 NSCLC) [µM] | TGI (U251 CNS) [µM] |
| --- | --- | --- | --- | --- | --- | --- | --- | --- | --- | --- | --- | --- | --- |
| Cc1cc2n[n+]3[n-]cc(-c4ccccc4)n3c2cc1[N+](=O)[O-] | > 100 | > 100 | > 100 | – | > 100 | > 100 | – | > 100 | > 100 | > 100 | > 100 | > 100 | > 100 |
| COC(=O)C1=C(C(=O)OC)C(N(C)C)C(C(=O)OC)=C(C(=O)OC)S1 | > 100 | > 100 | > 100 | > 100 | > 100 | > 100 | – | > 100 | > 100 | > 100 | > 100 | > 100 | > 100 |
| O=C(N/N=C\c1cccc2ccccc12)Nc1cccc2ccccc12 | 83.4 | – | > 100 | > 100 | > 100 | 51.3 | > 100 | > 100 | 56.5 | – | 72 | 23.1 | 34.9 |
| CC(=O)O[C@H]1C(=O)[C@@]2(C)[C@H]([C@H](OC(=O)c3ccccc3)[C@]3(O)C[C@H](OC(=O)[C@H](O)[C@@H](NC(=O)c4ccccc4)c4cccc(N(C)C)c4)C(C)=C1C3(C)C)[C@]1(OC(C)=O)CO[C@@H]1C[C@@H]2O | > 75 | – | > 75 | > 27.4 | 27.5 | 9.02 | > 32.9 | 12.4 | > 60 | > 28.6 | > 61.4 | > 18.3 | > 27 |
| CCOC(=O)/C=C(\C(=O)OCC)n1cc(Cl)c(=O)n(CC(=O)OCC)c1=O | 5.27 | 6.05 | 36.5 | 8.59 | 51.1 | 34.9 | 38.3 | 27.8 | 3.6 | 33.9 | 4.94 | 33.7 | 29.6 |
| Cc1c2oc3c(C)ccc(C(=O)NC4C(=O)NC(C(C)C)C(=O)N5CC(O)CC5C(=O)N(C)CC(=O)N(C)C(C(C)C)C(=O)OC4C)c3nc-2c(C(=O)NC2C(=O)NC(C(C)C)C(=O)N3CC(O)CC3C(=O)N(C)CC(=O)N(C)C(C(C)C)C(=O)OC2C)c(N)c1=O (centres undefined) (I: TV[Hyp][Sar][NMeV] / II: TV[Hyp][Sar][NMeV]; ester I:1-I:C, II:1-II:C; linker I:N-II:N via Actinocin(9to1); configuration not given here) | > 1 | > 1 | > 1 | > 1 | > 1 | > 1 | > 1 | > 1 | > 1 | > 1 | > 1 | > 1 | > 1 |
| O=C1CSC(c2ccc([N+](=O)[O-])cc2)N1c1ccc(-c2ccc(-n3c(-c4ccccc4)nc4ccccc4c3=O)cc2)cc1 (centres undefined) | > 100 | > 100 | > 100 | > 100 | > 100 | > 100 | > 100 | > 100 | > 100 | > 100 | > 100 | > 100 | > 100 |
| C=CC(=O)N1C/C(=C\c2ccc([N+](=O)[O-])cc2)C(=O)/C(=C/c2ccc([N+](=O)[O-])cc2)C1 | 0.801 | – | 1.74 | 0.727 | 1.21 | 0.807 | < 0.038 | 0.361 | 2.09 | 2.85 | 0.115 | 0.375 | 0.978 |
| CCCCc1ccc(Nc2nc(Cl)c3c(ncn3C3CC(Oc4ccc(C)cc4)C(COc4ccc(C)cc4)O3)n2)cc1 (centres undefined) | > 100 | > 100 | – | > 100 | > 100 | > 100 | > 100 | > 100 | > 100 | > 100 | > 100 | > 100 | > 100 |
| COc1ccc2c(c1)NC1(CCN(CCCC(=O)c3ccc(F)cc3)CC1)N=N2 | 90.6 | 41.4 | 37 | – | 93.5 | 76.7 | 69.4 | > 100 | 62.2 | > 100 | 36 | 60.3 | 48.6 |
| COC(=O)C1=C(O)CCCC(C2CCCCC(=O)C2C(=O)OC)=C1 (centres undefined) | > 100 | > 100 | > 100 | > 100 | 39.6 | 58.7 | > 100 | > 100 | > 100 | > 100 | > 100 | – | > 100 |
| Cc1nc2c(cc1OCc1ccccc1)C(=O)C1=C(C2=O)C2OC(=O)CC2OC1(C)C (centres undefined) | 1.67 | 87.9 | 1.14 | 12.3 | 2.9 | 3.02 | 1.41 | 1.8 | 2.75 | – | 1.04 | 2.87 | 2.14 |
| CN(C)CCNC(=O)c1cccc2nc3c(C(=O)NCCN(C)C)cccc3nc12 | > 100 | 14.7 | 4.64 | 4.67 | 7.91 | 4.61 | 3.49 | 2.67 | 6.81 | – | 13.4 | 5.12 | 11.2 |
| Cc1ccc(NC(=O)/C(Cc2cc(=O)oc3cc(O)ccc23)=N\NC(C)(C)C)cc1C | > 100 | > 100 | > 100 | > 100 | > 100 | > 100 | > 100 | > 100 | – | > 100 | > 100 | – | > 100 |
| C=CCOC(OCC=C)/C(Br)=C/C | > 100 | – | > 100 | 37 | > 100 | > 100 | 62.3 | > 100 | > 100 | > 100 | 28.1 | > 100 | > 100 |
| O=c1[nH]nc(Cc2ccccc2)n1/N=C/c1cccnc1 | > 100 | > 100 | > 100 | > 100 | > 100 | > 100 | > 100 | > 100 | > 100 | – | > 100 | > 100 | > 100 |
